pIC50: −log10 of the molar value. Read-outs that look alike come from different tables or passages of the source. Peptide text beside a SMILES is read from it.
Experiments:
[1] = target: Human hypothalamus tissue; experiment: Inhibition of 125I-Tyr-Ala-HEXARELIN binding to human hypothalamus tissue membranes; settings: for pIC50: human hypothalamus tissue; for percent of inhibition of 125I-Tyr-Ala-HEXARELIN specifically bound / specific binding of 125I-Tyr-Ala-HEXARELIN/0.1 mg membrane protein: hypothalamus
Protocol: (§1) The peptides of Examples 3 and 6 were further studied for inhibition of ^125 I--Tyr--Ala--HEXARELIN binding to human tissue. HEXARELIN is His--D--Mrp--Ala--Trp--D--Phe--Lys--NH2 where Mrp is 2-methyltryptophan.
(§2) Tissue membranes (0.1 mg protein) obtained from the heart and hypothalamus of two different adult subjects were incubated in triplicate with a subsaturating concentration (34 pM, about 48,000 cpm, for heart tissue and 42 pM, about 60,000 cpm, for hypothalamus tissue) of ^125 I--Tyr--Ala--HEXARELIN for 40 min at 0° C. in the absence and in the presence of increasing concentrations of the indicated unlabelled peptides. The value in parentheses represents the percent of inhibition of ^125 1I--Tyr--Ala--HEXARELIN specifically bound.
(§3) The specific binding of ^125 I--Tyr--Ala--HEXARELIN/0.1 mg membrane protein is expressed as a percent of total radioactivity added.

Human heart tissue = experiment: Inhibition of 125I-Tyr-Ala-HEXARELIN binding to human heart tissue membranes; settings: for percent of inhibition of 125I-Tyr-Ala-HEXARELIN specifically bound / specific binding of 125I-Tyr-Ala-HEXARELIN/0.1 mg membrane protein: heart; for pIC50: human heart tissue
Protocol: as §1, §2, §3

[2] = mean of subjects 1 and 2, read-out: mean IC50 value
[3] = subject 1, read-out: IC50 value
[4] = subject 2, read-out: IC50 value

Cc1[nH]c2ccccc2c1C[C@@H](NC(=O)[C@@H](N)Cc1cnc[nH]1)C(=O)N[C@@H](C)C(=O)N[C@@H](Cc1c[nH]c2ccccc12)C(=O)N[C@H](Cc1ccccc1)C(=O)N[C@@H](CCCCN)C(N)=O [HEXARELIN, His--D--Mrp--Ala--Trp--D--Phe--Lys--NH2] (HELM PEPTIDE1{H.[Cc1[nH]c2ccccc2c1C[C@@H](N[*:1])C(=O)[*:2]].A.W.[dF].K.[am]}$$$$V2.0)
pIC50 [1, 2]: 8.15 | pIC50 [1, 3]: 8.05 | pIC50 [1, 4]: 8.30 | percent of inhibition of 125I-Tyr-Ala-HEXARELIN specifically bound ([1]; 0.1 nM peptide, subject 1): 3% | specific binding of 125I-Tyr-Ala-HEXARELIN/0.1 mg membrane protein ([1]; 0.1 nM peptide, subject 1): 10.7% of total radioactivity | percent of inhibition of 125I-Tyr-Ala-HEXARELIN specifically bound ([1]; 0.1 nM peptide, subject 2): 4% | specific binding of 125I-Tyr-Ala-HEXARELIN/0.1 mg membrane protein ([1]; 0.1 nM peptide, subject 2): 9.1% of total radioactivity | percent of inhibition of 125I-Tyr-Ala-HEXARELIN specifically bound ([1]; 1 nM peptide, subject 1): 16% | specific binding of 125I-Tyr-Ala-HEXARELIN/0.1 mg membrane protein ([1]; 1 nM peptide, subject 1): 9.6% of total radioactivity | percent of inhibition of 125I-Tyr-Ala-HEXARELIN specifically bound ([1]; 1 nM peptide, subject 2): 19% | specific binding of 125I-Tyr-Ala-HEXARELIN/0.1 mg membrane protein ([1]; 1 nM peptide, subject 2): 7.7% of total radioactivity | percent of inhibition of 125I-Tyr-Ala-HEXARELIN specifically bound ([1]; 10 nM peptide, subject 1): 51% | specific binding of 125I-Tyr-Ala-HEXARELIN/0.1 mg membrane protein ([1]; 10 nM peptide, subject 1): 5.2% of total radioactivity | percent of inhibition of 125I-Tyr-Ala-HEXARELIN specifically bound ([1]; 10 nM peptide, subject 2): 67% | specific binding of 125I-Tyr-Ala-HEXARELIN/0.1 mg membrane protein ([1]; 10 nM peptide, subject 2): 3.1% of total radioactivity | percent of inhibition of 125I-Tyr-Ala-HEXARELIN specifically bound ([1]; 100 nM peptide, subject 1): 89% | specific binding of 125I-Tyr-Ala-HEXARELIN/0.1 mg membrane protein ([1]; 100 nM peptide, subject 1): 1.2% of total radioactivity | percent of inhibition of 125I-Tyr-Ala-HEXARELIN specifically bound ([1]; 100 nM peptide, subject 2): 93% | specific binding of 125I-Tyr-Ala-HEXARELIN/0.1 mg membrane protein ([1]; 100 nM peptide, subject 2): 0.7% of total radioactivity | percent of inhibition of 125I-Tyr-Ala-HEXARELIN specifically bound ([1]; 1000 nM peptide, subject 1): 100% | specific binding of 125I-Tyr-Ala-HEXARELIN/0.1 mg membrane protein ([1]; 1000 nM peptide, subject 1): 0% of total radioactivity | percent of inhibition of 125I-Tyr-Ala-HEXARELIN specifically bound ([1]; 1000 nM peptide, subject 2): 100% | specific binding of 125I-Tyr-Ala-HEXARELIN/0.1 mg membrane protein ([1]; 1000 nM peptide, subject 2): 0% of total radioactivity | percent of inhibition of 125I-Tyr-Ala-HEXARELIN specifically bound (Human heart tissue; 0.1 nM peptide, subject 1): 4% | specific binding of 125I-Tyr-Ala-HEXARELIN/0.1 mg membrane protein (Human heart tissue; 0.1 nM peptide, subject 1): 20.1% of total radioactivity | percent of inhibition of 125I-Tyr-Ala-HEXARELIN specifically bound (Human heart tissue; 0.1 nM peptide, subject 2): 5% | specific binding of 125I-Tyr-Ala-HEXARELIN/0.1 mg membrane protein (Human heart tissue; 0.1 nM peptide, subject 2): 22.8% of total radioactivity | percent of inhibition of 125I-Tyr-Ala-HEXARELIN specifically bound (Human heart tissue; 1 nM peptide, subject 1): 20% | specific binding of 125I-Tyr-Ala-HEXARELIN/0.1 mg membrane protein (Human heart tissue; 1 nM peptide, subject 1): 16.9% of total radioactivity | percent of inhibition of 125I-Tyr-Ala-HEXARELIN specifically bound (Human heart tissue; 1 nM peptide, subject 2): 28% | specific binding of 125I-Tyr-Ala-HEXARELIN/0.1 mg membrane protein (Human heart tissue; 1 nM peptide, subject 2): 17.3% of total radioactivity | percent of inhibition of 125I-Tyr-Ala-HEXARELIN specifically bound (Human heart tissue; 10 nM peptide, subject 1): 51% | specific binding of 125I-Tyr-Ala-HEXARELIN/0.1 mg membrane protein (Human heart tissue; 10 nM peptide, subject 1): 10.4% of total radioactivity | percent of inhibition of 125I-Tyr-Ala-HEXARELIN specifically bound (Human heart tissue; 10 nM peptide, subject 2): 56% | specific binding of 125I-Tyr-Ala-HEXARELIN/0.1 mg membrane protein (Human heart tissue; 10 nM peptide, subject 2): 10.5% of total radioactivity | percent of inhibition of 125I-Tyr-Ala-HEXARELIN specifically bound (Human heart tissue; 100 nM peptide, subject 1): 92% | specific binding of 125I-Tyr-Ala-HEXARELIN/0.1 mg membrane protein (Human heart tissue; 100 nM peptide, subject 1): 1.7% of total radioactivity | percent of inhibition of 125I-Tyr-Ala-HEXARELIN specifically bound (Human heart tissue; 100 nM peptide, subject 2): 90% | specific binding of 125I-Tyr-Ala-HEXARELIN/0.1 mg membrane protein (Human heart tissue; 100 nM peptide, subject 2): 2.4% of total radioactivity | percent of inhibition of 125I-Tyr-Ala-HEXARELIN specifically bound (Human heart tissue; 1000 nM peptide, subject 1): 100% | specific binding of 125I-Tyr-Ala-HEXARELIN/0.1 mg membrane protein (Human heart tissue; 1000 nM peptide, subject 1): 0% of total radioactivity | percent of inhibition of 125I-Tyr-Ala-HEXARELIN specifically bound (Human heart tissue; 1000 nM peptide, subject 2): 100% | specific binding of 125I-Tyr-Ala-HEXARELIN/0.1 mg membrane protein (Human heart tissue; 1000 nM peptide, subject 2): 0% of total radioactivity | pIC50 (Human heart tissue; [2]): 8.02 | pIC50 (Human heart tissue; [3]): 7.97 | pIC50 (Human heart tissue; [4]): 8.08
